This passage reports IC50 results from patent publication US9227971B2, “Pyrazolo[1,5-a]pyrimidine compounds as mTOR inhibitors” (Merck Sharp & Dohme Corp., priority 2010, dated 2016).

For assay [1], the system named is phosphorylated AKT Ser473 (pAKT S473), mTORC2 activity, PC3 cells. The experiment in a line: mTOR target engagement assay, immunofluorescent cell-based, pAKT S473 readout (mTORC2 activity). The conditions noted are these: Homo sapiens. Summed up: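 After blocking, cells were stained overnight at 4 °C with anti-pAKT S473 antibody, then a fluorescent secondary; inhibition was read as reduced fluorescence intensity.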

Assay [2] deals with phosphorylated 4E-BP1 Thr37/46 (p4E-BP1 Thr37/46), mTORC1 activity, PC3 cells. Description: mTOR target engagement assay, immunofluorescent cell-based, p4E-BP1 Thr37/46 readout (mTORC1 activity). The settings on record: Homo sapiens, read-out: p4E-BP1 Thr37/46 IC50. Summed up:
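PTEN-mutant PC3 prostate cells were treated with serially diluted compound in 5% FBS F12 medium (0.25% DMSO) for ninety minutes at 37° C, glyoxal-fixed, then immunostained overnight at 4° C for p4E-BP1 Thr37/46 with an Alexa Fluor 488 secondary. IC50 came from four-parameter fits of fluorescence, DMSO-only wells defining 100%.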

[3] abbreviates: PC-3, PC3 cells, compound treatment ninety minutes at 37° C.

pIC50: −log10 of the molar value. Where two headings read alike, the source gives them in different places.

For the molecule `COCc1cc(-c2ccc(-c3cnn4c(N)c(C(C)=O)c([C@@H]5C[C@H]6CC[C@@H](C5)N6C(=O)c5nnc[nH]5)nc34)cn2)ccc1OC` [Compound 1.1.45, 1-(5-((1R,3s,5S)-8-(4H-1,2,4-triazole-3-carbonyl)-8-azabicyclo[3.2.1]octan-3-yl)-7-amino-3-(6-(4-methoxy-3-(methoxymethyl)phenyl)pyridin-3-yl)pyrazolo[1,5-a]pyrimidin-6-yl)ethanone], the pIC50 in assay [1] (setting [3]) and in assay [2] (setting [3]) was 7.00 to 9.00 in each case.
In the case of `Nc1n[nH]cc1C(=O)N1[C@@H]2CC[C@H]1C[C@H](c1nc3c(-c4ccc(-c5ccccc5)nc4)cnn3c(N)c1C1CC1)C2` [Compound 4.30, (3-amino-1H-pyrazol-4-yl)((1R,3s,5S)-3-(7-amino-6-cyclopropyl-3-(6-phenylpyridin-3-yl)pyrazolo[1,5-a]pyrimidin-5-yl)-8-azabicyclo[3.2.1]octan-8-yl)methanone], the pIC50 in assay [1] (setting [3]) is 7.00 to 9.00; in assay [2] (setting [3]), 6.00 to 7.00.
Turning to `CS(=O)(=O)c1c([C@@H]2C[C@H]3CC[C@@H](C2)N3C(=O)c2nnc[nH]2)nc2c(-c3cnc(-c4ccccc4)nc3)cnn2c1N` [Compound 3.136, ((1R,3s,5S)-3-(7-amino-6-(methylsulfonyl)-3-(2-phenylpyrimidin-5-yl)pyrazolo[1,5-a]pyrimidin-5-yl)-8-azabicyclo[3.2.1]octan-8-yl)(4H-1,2,4-triazol-3-yl)methanone], the pIC50 is 7.00 to 9.00 in assay [1] (PC-3, Table 3-1, PC3 cells) and 7.00 to 9.00 in assay [2] (PC-3, Table 3-1, PC3 cells).
On to `COCCOc1ccc(-c2ccc(-c3cnn4c(N)c(C5CC5)c([C@@H]5C[C@H]6CC[C@@H](C5)N6C(=O)c5nnc[nH]5)nc34)cn2)cc1` [Compound 4.14, ((1R,3s,5S)-3-(7-amino-6-cyclopropyl-3-(6-(4-(2-methoxyethoxy)phenyl)pyridin-3-yl)pyrazolo[1,5-a]pyrimidin-5-yl)-8-azabicyclo[3.2.1]octan-8-yl)(4H-1,2,4-triazol-3-yl)methanone], for which the pIC50 in assay [1] (setting [3]) and in assay [2] (setting [3]) was 6.00 to 7.00 each time.
For the molecule `COc1ccc(-c2ccc(-c3cnn4c(N)c(C(C)=O)c([C@@H]5C[C@H]6CC[C@@H](C5)N6C(=O)c5nnc[nH]5)nc34)cn2)cc1` [Compound 1.1.46, 1-(5-((1R,3s,5S)-8-(4H-1,2,4-triazole-3-carbonyl)-8-azabicyclo[3.2.1]octan-3-yl)-7-amino-3-(6-(4-methoxyphenyl)pyridin-3-yl)pyrazolo[1,5-a]pyrimidin-6-yl)ethanone], the pIC50 in assay [1] (setting [3]) and in assay [2] (setting [3]) was 7.00 to 9.00 each time.
On to `Cc1cc(C(=O)N2[C@@H]3CC[C@H]2C[C@H](c2nc4c(-c5ccc(-c6ccccc6)nc5)ccn4c(N)c2S(C)(=O)=O)C3)[nH]n1` [Compound 3.81, ((1R,3s,5S)-3-(7-amino-6-(methyslulfonyl)-3-(6-phenylpyridin-3-yl)pyrazolo[1,5-a]pyrimidin-5-yl)-8-azabicyclo[3.2.1]octan-8-yl)(3-methyl-1H-pyrazol-5-yl)methanone], for which the pIC50 in assay [1] (PC-3, Table 3-1, PC3 cells) was 6.00 to 7.00; in assay [2] (PC-3, Table 3-1, PC3 cells), 6.00 to 7.00.
With `COc1ccc(-c2ccc(-c3cnn4c(N)c(S(C)(=O)=O)c([C@@H]5C[C@H]6CC[C@@H](C5)N6C(=O)c5nnc(C)[nH]5)nc34)cn2)cc1` [Compound 3.34, ((1R,3s,5S)-3-(7-amino-3-(6-(4-methoxyphenyl)pyridin-3-yl)-6-(methylsulfonyl)pyrazolo[1,5-a]pyrimidin-5-yl)-8-azabicyclo[3.2.1]octan-8-yl)(5-methyl-4H-1,2,4-triazol-3-yl)methanone], the pIC50 was 7.00 to 9.00 in assay [1] (PC-3, Table 3-1, PC3 cells) and 7.00 to 9.00 in assay [2] (PC-3, Table 3-1, PC3 cells).
For the molecule `CCn1ccc(-c2ccc(-c3cnn4c(N)c(C(C)=O)c([C@@H]5C[C@H]6CC[C@@H](C5)N6C(=O)c5nnc[nH]5)nc34)cn2)n1` [Compound 1.1.138, 1-(5-((1R,3s,5S)-8-(4H-1,2,4-triazole-3-carbonyl)-8-azabicyclo[3.2.1]octan-3-yl)-7-amino-3-(6-(1-ethyl-1H-pyrazol-3-yl)pyridin-3-yl)pyrazolo[1,5-a]pyrimidin-6-yl)ethanone], the pIC50 in assay [1] (setting [3]) and in assay [2] (setting [3]) was 7.00 to 9.00 each time.
Take `CNC(=O)N1[C@@H]2CC[C@H]1C[C@H](c1nc3c(-c4ccc(-c5ccccc5)nc4)cnn3c(N)c1C1CC1)C2` [Compound 4.4, (1R,3a,5S)-3-(7-amino-6-cyclopropyl-3-(6-phenylpyridin-3-yl)pyrazolo[1,5-a]pyrimidin-5-yl)-N-methyl-8-azabicyclo[3.2.1]octane-8-carboxamide]: the pIC50 was 7.00 to 9.00 in assay [1] (setting [3]) and 6.00 to 7.00 in assay [2] (setting [3]).
Take `Nc1c(C2CC2)c([C@H]2CC3CC[C@H](C2)N3C(=O)c2nnc[nH]2)nc2c(-c3cnc4c(c3)CCCC4O)cnn12` (stereo partly drawn) [Compound 7.54, ((1R,3s,5S)-3-(7-amino-6-cyclopropyl-3-(8-hydroxy-5,6,7,8-tetrahydroquinolin-3-yl)pyrazolo[1,5-a]pyrimidin-5-yl)-8-azabicyclo[3.2.1]octan-8-yl)(4H-1,2,4-triazol-3-yl)methanone]: the pIC50 in assay [1] (PC-3, PC3 cells) is 7.00 to 9.00; in assay [2] (PC-3, PC3 cells) it was 7.00 to 9.00.
Take `CS(=O)(=O)c1c([C@@H]2C[C@H]3CC[C@@H](C2)N3C(=O)CO)nc2c(-c3ccc(C(O)C(F)(F)F)nc3)cnn2c1N` (stereo partly drawn) [Compound 7.70, 1-((1R,3s,5S)-3-(7-amino-6-(methylsulfonyl)-3-(6-(2,2,2-trifluoro-1-hydroxyethyl)pyridin-3-yl)pyrazolo[1,5-a]pyrimidin-5-yl)-8-azabicyclo[3.2.1]octan-8-yl)-2-hydroxyethanone]: the pIC50 in assay [1] (PC-3, PC3 cells) was 5.00 to 6.00; in assay [2] (PC-3, PC3 cells) it was 5.00 to 6.00.
Regarding `CC(=O)c1c([C@@H]2C[C@H]3CC[C@@H](C2)N3C(=O)c2cc(N)n[nH]2)nc2c(-c3ccc(-c4cnn(C)c4)nc3)cnn2c1N` [Compound 1.1.176, 1-(7-amino-5-((1R,3s,5S)-8-(3-amino-1H-pyrazole-5-carbonyl)-8-azabicyclo[3.2.1]octan-3-yl)-3-(6-(1-methyl-1H-pyrazol-4-yl)pyridin-3-yl)pyrazolo[1,5-a]pyrimidin-6-yl)ethanone], the pIC50 in assay [1] (setting [3]) and in assay [2] (setting [3]) was 6.00 to 7.00 in each case.
With `CNC(=O)c1ccc(-c2cnn3c(N)c(S(C)(=O)=O)c([C@@H]4C[C@H]5CC[C@@H](C4)N5C(=O)c4nc[nH]n4)nc23)cn1` [Compound 3.17, 5-(5-((1R,3s,5S)-8-(1H-1,2,4-triazole-3-carbonyl)-8-azabicyclo[3.2.1]octan-3-yl)-7-amino-6-(methylsulfonyl)pyrazolo[1,5-a]pyrimidin-3-yl)-N-methylpicolinamide], the pIC50 in assay [1] (PC-3, Table 3-1, PC3 cells) was < 5.00; in assay [2] (PC-3, Table 3-1, PC3 cells), 5.00 to 6.00.
In the case of `CC(=O)c1c([C@@H]2C[C@H]3CC[C@@H](C2)N3C(=O)CO)nc2c(-c3ccc(C)nc3)cnn2c1N` [Compound 1.1.90, 1-((1R,3s,5S)-3-(6-acetyl-7-amino-3-(6-methylpyridin-3-yl)pyrazolo[1,5-a]pyrimidin-5-yl)-8-azabicyclo[3.2.1]octan-8-yl)-2-hydroxyethanone], the pIC50 in assay [1] (setting [3]) and in assay [2] (setting [3]) was 5.00 to 6.00 throughout.
Turning to `CC(=O)c1c(C2CC3CCC(C2)N3C(=O)c2nnc[nH]2)nc2c(-c3ccc(-c4ccccc4)nc3)cnn2c1N` [Compound 1.1.7, 1-(5-((1R,3s,5S)-8-(1H-1,2,4-triazole-3-carbonyl)-8-azabicyclo[3.2.1]octan-3-yl)-7-amino-3-(6-phenylpyridin-3-yl)pyrazolo[1,5-a]pyrimidin-6-yl)ethanone], the pIC50 in assay [1] (setting [3]) and in assay [2] (setting [3]) was 7.00 to 9.00 in each case.
For `Nc1c(C2CC2)c([C@@H]2C[C@H]3CC[C@@H](C2)N3C(=O)c2cc[nH]c2)nc2c(-c3ccc(-c4ncc[nH]4)nc3)cnn12` [Compound 6.14, ((1R,3s,5S)-3-(3-(6-(1H-imidazol-2-yl)pyridin-3-yl)-7-amino-6-cyclopropylpyrazolo [1,5-a]pyrimidin-5-yl)-8-azabicyclo[3.2.1]octan-8-yl)(1H-pyrrol-3-yl)methanone], the pIC50 in assay [1] (PC-3, Table 6-1, PC3 cells) is 7.00 to 9.00; in assay [2] (PC-3, Table 6-1, PC3 cells) it was 6.00 to 7.00.
Regarding `CC(=O)c1c([C@@H]2C[C@H]3CC[C@@H](C2)N3C(=O)c2nnc[nH]2)nc2c(-c3ccc([C@@H](C)O)nc3)cnn2c1N` [Compound 7.33, 1-(5-((1R,3s,5S)-8-(4H-1,2,4-triazole-3-carbonyl)-8-azabicyclo[3.2.1]octan-3-yl)-7-amino-3-(6-((R)-1-hydroxyethyl)pyridin-3-yl)pyrazolo[1,5-a]pyrimidin-6-yl)ethanone], the pIC50 in assay [1] (PC-3, Table 7-4, PC3 cells) is 6.00 to 7.00; in assay [2] (PC-3, Table 7-4, PC3 cells), 6.00 to 7.00.
Turning to `CS(=O)(=O)c1c([C@@H]2C[C@H]3CC[C@@H](C2)N3C(=O)c2nnc[nH]2)nc2c(-c3cn[nH]c3)cnn2c1N` [Compound 3.113, ((1R,3s,5S)-3-(7-amino-6-(methylsulfonyl)-3-(1H-pyrazol-4-yl)pyrazolo[1,5-a]pyrimidin-5-yl)-8-azabicyclo[3.2.1]octan-8-yl)(4H-1,2,4-triazol-3-yl)methanone], the pIC50 is < 5.00 in assay [1] (PC-3, Table 3-1, PC3 cells) and 5.00 to 6.00 in assay [2] (PC-3, Table 3-1, PC3 cells).
With `CC(=O)c1c([C@@H]2C[C@H]3CC[C@@H](C2)N3C(=O)c2nnc[nH]2)nc2c(-c3cnn(-c4ccccc4)c3)cnn2c1N` [Compound 1.1.143, 1-(5-((1R,3s,5S)-8-(4H-1,2,4-triazole-3-carbonyl)-8-azabicyclo[3.2.1]octan-3-yl)-7-amino-3-(1-phenyl-1H-pyrazol-4-yl)pyrazolo[1,5-a]pyrimidin-6-yl)ethanone], the pIC50 in assay [1] (setting [3]) and in assay [2] (setting [3]) was 7.00 to 9.00 each time.
